We go through 1 molecule from ChEMBL document CHEMBL3351438, “Further optimization of the M5 NAM MLPCN probe ML375: tactics and challenges” (Bioorg Med Chem Lett, 2015).

For orientation: half-life means the time needed for the level to fall by half in the phase considered. Read a high half-life as slow decline. By AUC(0-inf) is commonly meant total exposure, with the tail of the curve extrapolated. A word on the bioavailability: it is dose-corrected exposure relative to a reference, in per cent. Broadly, the MRT is the average time that molecules of a dose stay in the body. The IC50 is the concentration that gives 50% inhibition. The Tmax is the time from dosing to the highest level. Broadly, the Cmax is the maximum level reached in the sampled fluid or tissue. As a reminder, the fraction unbound is free concentration divided by total concentration. The term AUC denotes the area under the concentration-time curve, a measure of exposure.

The nature of series [1]: Intrinsic clearance in human hepatocytes. The series is classed as ADME, cell-based, Hepatocyte. Particulars: read-out: CLH.
Series [2] deals with Rattus norvegicus. The series can be described thus: Oral bioavailability in Sprague-Dawley rat at 10 mg/kg. The class given is ADME, organism-based. Particulars: in vivo.
Series [3] can be described thus: Half life in Sprague-Dawley rat at 1 mg/kg, iv. The series is classed as ADME, organism-based. Set-up: dose 1 mg/kg, route intravenous. Particulars: in vivo.
Series [4] in a line: Volume of distribution at steady state in Sprague-Dawley rat at 1 mg/kg, iv. The series is classed as ADME, organism-based. Set-up: dose 1 mg/kg, route intravenous. Particulars: in vivo, read-out: Vdss.
A short description of series [5]: Intrinsic clearance in human liver microsomes. The class given is ADME. Particulars: read-out: CLH.
Series [6] is described as follows: AUC (0 to infinity) in Sprague-Dawley rat at 10 mg/kg, po pretreated with 56.6 mg/kg, po 1-aminobenzotriazole. The class given is ADME, organism-based. More on the design: dose 10 mg/kg, time infinity, route oral. Particulars: plasma.
Series [7] is described as follows: Oral bioavailability in Sprague-Dawley rat at 10 mg/kg pretreated with 56.6 mg/kg, po 1-aminobenzotriazole. The class given is ADME, organism-based. Particulars: in vivo.
A short description of series [8]: Intrinsic clearance in rat liver microsomes. The series is classed as ADME. Particulars: read-out: CLH.
Series [9] can be described thus: Mean residence time in Sprague-Dawley rat at 10 mg/kg, po. Particulars: in vivo. The class given is ADME, organism-based. Set-up: dose 10 mg/kg, route oral.
In series [10] the target is T1, Muscarinic acetylcholine receptor M5 (Homo sapiens, UniProt P08912).
T1 sequence (P08912 whole entry): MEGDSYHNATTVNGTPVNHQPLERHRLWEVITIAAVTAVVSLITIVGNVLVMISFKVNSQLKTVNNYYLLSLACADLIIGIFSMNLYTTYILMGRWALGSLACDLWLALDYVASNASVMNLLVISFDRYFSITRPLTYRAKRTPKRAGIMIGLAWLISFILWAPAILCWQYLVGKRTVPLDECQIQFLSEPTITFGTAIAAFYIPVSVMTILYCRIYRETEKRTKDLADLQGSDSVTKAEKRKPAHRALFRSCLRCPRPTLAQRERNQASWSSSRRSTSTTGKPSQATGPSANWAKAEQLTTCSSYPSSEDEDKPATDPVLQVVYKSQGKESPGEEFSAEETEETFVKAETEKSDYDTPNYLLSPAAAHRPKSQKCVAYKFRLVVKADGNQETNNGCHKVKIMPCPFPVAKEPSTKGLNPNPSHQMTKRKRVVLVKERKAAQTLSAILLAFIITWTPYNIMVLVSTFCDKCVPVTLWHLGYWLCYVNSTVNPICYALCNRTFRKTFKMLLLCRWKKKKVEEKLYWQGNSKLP
The series can be described thus: Negative allosteric modulation of human muscarinic acetylcholine receptor M5 expressed in CHO cells assessed as inhibition of acetylcholine-induced calcium mobilization incubated for 150 secs prior to acetylcholine induction by Fluo4AM staining-based fluorescence assay. On the technique in general: Calcium assays in cells follow changes in intracellular calcium, usually with a dye or a luminescent sensor.

A short description of series [11]: Tmax in Sprague-Dawley rat at 10 mg/kg, po. Particulars: in vivo. More on the design: dose 10 mg/kg, route oral. The series is classed as ADME, organism-based.
Series [12] in a line: Cmax in Sprague-Dawley rat in plasma at 10 mg/kg, po pretreated with 56.6 mg/kg, po 1-aminobenzotriazole. The class given is ADME, organism-based. Set-up: dose 10 mg/kg, route oral.
Series [13] in a line: Fraction unbound in Sprague-Dawley rat brain. The class given is ADME, tissue-based. Particulars: brain tissue.
The subject of another series is Plasma. The series can be described thus: fCmax in Sprague-Dawley rat plasma at 10 mg/kg, po pretreated with 56.6 mg/kg, po 1-aminobenzotriazole. Particulars: in vivo. The class given is ADME, organism-based.
The nature of series [14]: Cmax in Sprague-Dawley rat in brain at 10 mg/kg, po pretreated with 56.6 mg/kg, po 1-aminobenzotriazole. The series is classed as ADME, organism-based. Set-up: dose 10 mg/kg, route oral.
Series [15] addresses T2, Muscarinic acetylcholine receptor M5 (Rattus norvegicus, UniProt P08911).
T2 sequence (P08911 whole entry): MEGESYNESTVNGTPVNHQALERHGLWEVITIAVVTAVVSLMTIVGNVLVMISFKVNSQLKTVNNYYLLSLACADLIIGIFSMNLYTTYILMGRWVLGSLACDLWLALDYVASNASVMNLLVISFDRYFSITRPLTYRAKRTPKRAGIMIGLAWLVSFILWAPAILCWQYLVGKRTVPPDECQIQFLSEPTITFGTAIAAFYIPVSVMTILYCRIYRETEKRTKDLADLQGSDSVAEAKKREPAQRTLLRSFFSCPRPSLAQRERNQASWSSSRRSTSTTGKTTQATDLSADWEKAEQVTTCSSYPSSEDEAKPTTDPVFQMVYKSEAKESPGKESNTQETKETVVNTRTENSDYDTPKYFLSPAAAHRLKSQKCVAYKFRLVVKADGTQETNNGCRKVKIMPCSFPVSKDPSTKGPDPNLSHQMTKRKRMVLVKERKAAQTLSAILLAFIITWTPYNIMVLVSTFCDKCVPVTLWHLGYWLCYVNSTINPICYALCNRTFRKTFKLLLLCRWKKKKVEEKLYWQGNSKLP
The series can be described thus: Negative allosteric modulation of rat muscarinic acetylcholine receptor M5 expressed in CHO cells assessed as inhibition of acetylcholine-induced calcium mobilization incubated for 150 secs prior to acetylcholine induction by Fluo4AM staining-based fluorescence assay. The series is classed as functional, cell-based. Particulars: read-out: IC50.

Series [16] can be described thus: Fraction unbound in Sprague-Dawley rat plasma. The class given is ADME, cell-free. Particulars: Sprague-Dawley.
The test system of series [17] is Rattus norvegicus. Nature of the series: AUC (0 to infinity) in Sprague-Dawley rat at 10 mg/kg, po. The series is classed as ADME, organism-based, Plasma. Particulars: in vivo. More on the design: time infinity, dose 10 mg/kg, route oral.
Series [18] in a line: Intrinsic clearance in rat hepatocytes. Particulars: read-out: CLH. The class given is ADME, cell-based, Hepatocyte.

As for `COc1ccc([C@@]23c4ccccc4C(=O)N2CCN3C(=O)c2cc(F)c(F)c(F)c2)cc1C`, the CLint scaled in series [1] came to 19.8 mL/min/kg; in series [5] it was 359 mL/min/kg; in series [8], 332 mL/min/kg; in series [18], 57.8 mL/min/kg. Moreover, the F with Rattus norvegicus [2] is 2%. In series [3], this molecule displayed a half-life of 1.08 h. Further, the Vd in series [4] is 4.9 L/kg. Further, the AUC(0-inf) in [6] is 17700 ng·h/mL. For the same molecule, the bioavailability in series [7] turned out to be 9.5%. Further, the MRT in series [9] is 6.5 h. The figures for the IC50 in series [10] and in series [15] were 264 nM and 516 nM, respectively. Further, the Tmax in series [11] is 2.8 h. For the same molecule, the Cmax was determined as 2 µM in [12] and 5.4 µM in [14]. Further, the values for the fraction unbound in [13] and in [16] were 0.006 and 0.031, respectively. In the series on Plasma, the fCmax is reported as 62 nM. In addition, the AUC in the series with Rattus norvegicus [17] is 3660 ng·h/mL.
